Laboratory results taken from ChEMBL document CHEMBL5356964, “Design, synthesis and anti-rheumatoid arthritis activity of target TLR4 inhibitors” (Bioorg Med Chem, 2024).
pIC50: −log10 of the molar value. Calls of active or inactive are those of the source. The rule behind the calls is not given here.

Legend:
[1] = Antiproliferative activity against rat Synovial cell assessed as inhibition of cell growth incubated for 48 hrs by CCK-8 assay; assay type: functional, cell-based
RAW264.7 [2] = experiment: Antiproliferative activity against LPS-induced- mouse RAW264.7 cells assessed as inhibition of cell growth incubated for 24 hrs by CCK-8 assay; assay type: functional, cell-based; conditions: RAW264.7, 24 h
RAW264.7 [3] = experiment: Antiarthritic activity against LPS-induced mouse RAW264.7 cells assessed as reduction in IL-1beta level at 1 uM incubated for 24 hrs (Rvb 665.1 +/- 82.1 pg/L); assay type: functional
RAW264.7 [4] = experiment: Antiarthritic activity against LPS-induced mouse RAW264.7 cells assessed as reduction in IL-6 level at 1 uM incubated for 24 hrs (Rvb 231.1 +/- 24.2 pg/L); assay type: functional
RAW264.7 [5] = experiment: Antiarthritic activity against LPS-induced mouse RAW264.7 cells assessed as reduction in TNF-alpha level at 1 uM incubated for 24 hrs (Rvb 653.3 +/- 70.1 pg/L); assay type: functional
Toll-like receptor 4 = Toll-like receptor 4 (Homo sapiens, UniProt O00206); experiment: Inhibition of TLR4 (unknown origin) using TMB as substrate incubated for 90 mins
Chain of Toll-like receptor 4 (O00206 whole entry): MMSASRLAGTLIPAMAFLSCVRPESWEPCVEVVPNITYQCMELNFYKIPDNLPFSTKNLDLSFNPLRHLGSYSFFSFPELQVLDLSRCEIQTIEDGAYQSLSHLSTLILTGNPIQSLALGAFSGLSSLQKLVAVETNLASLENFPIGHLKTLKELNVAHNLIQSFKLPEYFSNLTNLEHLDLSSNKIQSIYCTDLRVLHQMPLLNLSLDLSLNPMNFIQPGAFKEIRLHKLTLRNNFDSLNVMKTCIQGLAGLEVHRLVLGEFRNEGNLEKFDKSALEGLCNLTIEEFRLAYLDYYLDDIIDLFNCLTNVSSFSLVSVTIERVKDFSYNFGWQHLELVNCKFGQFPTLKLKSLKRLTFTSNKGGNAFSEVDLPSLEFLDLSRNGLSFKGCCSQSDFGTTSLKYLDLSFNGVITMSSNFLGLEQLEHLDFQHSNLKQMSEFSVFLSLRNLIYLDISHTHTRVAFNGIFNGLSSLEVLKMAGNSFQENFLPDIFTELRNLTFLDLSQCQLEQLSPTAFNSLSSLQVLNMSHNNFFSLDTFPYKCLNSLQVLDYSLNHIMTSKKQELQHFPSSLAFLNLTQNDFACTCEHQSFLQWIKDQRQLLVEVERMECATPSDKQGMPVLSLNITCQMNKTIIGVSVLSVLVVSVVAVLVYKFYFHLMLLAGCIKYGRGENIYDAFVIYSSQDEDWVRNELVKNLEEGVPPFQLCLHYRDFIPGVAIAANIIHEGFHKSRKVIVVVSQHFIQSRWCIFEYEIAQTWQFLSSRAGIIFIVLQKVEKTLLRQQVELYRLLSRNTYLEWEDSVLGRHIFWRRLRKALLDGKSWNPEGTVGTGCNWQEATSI

RAW264.7 [6] = experiment: Antiarthritic activity against LPS-induced mouse RAW264.7 cells assessed as downregulation of JAK2 expression at 1 uM preincubated with compound for 24 hrs followed by LPS-induction and measured after 24 hrs by immunofluorescence analysis; assay type: functional, cell-based; conditions: time 48.0 hrs
RAW264.7 [7] = experiment: Antiproliferative activity against LPS-induced- mouse RAW264.7 cells assessed as cell survival at 1 uM pretreated with compound for 24 hrs followed by LPS induction and measured after 24 hrs; assay type: functional, cell-based; conditions: time 48.0 hrs
RAW264.7 [8] = experiment: Antiarthritic activity against LPS-induced mouse RAW264.7 cells assessed as downregulation of NF-kappaB expression at 1 uM preincubated with compound for 24 hrs followed by LPS-induction and measured after 24 hrs by immunofluorescence analysis; assay type: functional, cell-based; conditions: time 48.0 hrs
RAW264.7 [9] = experiment: Antiarthritic activity against LPS-induced mouse RAW264.7 cells assessed as downregulation of TNF-alpha mRNA expression at 1 uM preincubated with compound for 24 hrs followed by LPS-induction and measured after 24 hrs by RT-PCR analysis; assay type: functional, cell-based; conditions: time 48.0 hrs
RAW264.7 [10] = experiment: Antiarthritic activity against LPS-induced mouse RAW264.7 cells assessed as reduction in IL-6 level at 1 uM pretreated with compound for 24 hrs followed by LPS induction and measured after 24 hrs; assay type: functional, cell-based; conditions: time 48.0 hrs
RAW264.7 [11] = experiment: Antiarthritic activity against LPS-induced mouse RAW264.7 cells assessed as downregulation of TLR4 expression at 1 uM preincubated with compound for 24 hrs followed by LPS-induction and measured after 24 hrs by Western blot analysis; assay type: functional, cell-based; conditions: time 48.0 hrs
RAW264.7 [12] = experiment: Antiarthritic activity against LPS-induced mouse RAW264.7 cells assessed as downregulation of STAT3 mRNA expression at 1 uM preincubated with compound for 24 hrs followed by LPS-induction and measured after 24 hrs by RT-PCR analysis; assay type: functional, cell-based; conditions: time 48.0 hrs
RAW264.7 [13] = experiment: Antiarthritic activity against LPS-induced mouse RAW264.7 cells assessed as downregulation of JAK2 mRNA expression at 1 uM preincubated with compound for 24 hrs followed by LPS-induction and measured after 24 hrs by RT-PCR analysis; assay type: functional, cell-based; conditions: time 48.0 hrs
RAW264.7 [14] = experiment: Antiarthritic activity against LPS-induced mouse RAW264.7 cells assessed as downregulation of TLR4 expression at 1 uM preincubated with compound for 24 hrs followed by LPS-induction and measured after 24 hrs by immunofluorescence analysis; assay type: functional, cell-based; conditions: time 48.0 hrs
RAW264.7 [15] = experiment: Antiarthritic activity against LPS-induced mouse RAW264.7 cells assessed as downregulation of STAT3 expression at 1 uM preincubated with compound for 24 hrs followed by LPS-induction and measured after 24 hrs by immunofluorescence analysis; assay type: functional, cell-based; conditions: time 48.0 hrs
RAW264.7 [16] = experiment: Antiarthritic activity against LPS-induced mouse RAW264.7 cells assessed as reduction in TNF-alpha level at 1 uM pretreated with compound for 24 hrs followed by LPS induction and measured after 24 hrs; assay type: functional, cell-based; conditions: time 48.0 hrs
RAW264.7 [17] = experiment: Antiarthritic activity against LPS-induced mouse RAW264.7 cells assessed as downregulation of TLR4 mRNA expression at 1 uM preincubated with compound for 24 hrs followed by LPS-induction and measured after 24 hrs by RT-PCR analysis; assay type: functional, cell-based; conditions: time 48.0 hrs
RAW264.7 [18] = experiment: Antiarthritic activity against LPS-induced mouse RAW264.7 cells assessed as reduction in IL-1beta level at 1 uM pretreated with compound for 24 hrs followed by LPS induction and measured after 24 hrs; assay type: functional, cell-based; conditions: time 48.0 hrs
RAW264.7 [19] = experiment: Antiproliferative activity against LPS-induced- mouse RAW264.7 cells assessed as decrease in number of cells at 1 uM pretreated with compound for 24 hrs followed by LPS induction and measured after 24 hrs; assay type: functional, cell-based; conditions: time 48.0 hrs
RAW264.7 [20] = experiment: Antiarthritic activity against LPS-induced mouse RAW264.7 cells assessed as downregulation of NF-kappaB mRNA expression at 1 uM preincubated with compound for 24 hrs followed by LPS-induction and measured after 24 hrs by RT-PCR analysis; assay type: functional, cell-based; conditions: time 48.0 hrs
RAW264.7 [21] = experiment: Antiarthritic activity against LPS-induced mouse RAW264.7 cells assessed as downregulation of NF-kappaB expression at 1 uM preincubated with compound for 24 hrs followed by LPS-induction and measured after 24 hrs by Western blot analysis; assay type: functional, cell-based; conditions: time 48.0 hrs
RAW264.7 [22] = experiment: Antiarthritic activity against LPS-induced mouse RAW264.7 cells assessed as downregulation of TNF-alpha expression at 1 uM preincubated with compound for 24 hrs followed by LPS-induction and measured after 24 hrs by Western blot analysis; assay type: functional, cell-based; conditions: time 48.0 hrs
RAW264.7 [23] = experiment: Antiarthritic activity against LPS-induced mouse RAW264.7 cells assessed as downregulation of TNF-alpha expression at 1 uM preincubated with compound for 24 hrs followed by LPS-induction and measured after 24 hrs by immunofluorescence analysis; assay type: functional, cell-based; conditions: time 48.0 hrs

SMILES | pIC50 [1] | pIC50 (RAW264.7 [2]) | Activity (RAW264.7 [3]) [pg/L] | Activity (RAW264.7 [4]) [pg/L] | Activity (RAW264.7 [5]) [pg/L] | further results
CC(=O)CC(=O)C1CC(N2C(=O)c3ccccc3C2=O)CCC1=O (configuration not stated) | 5.22 | 5.58 | – | – | – | –
CC(=O)CC(=O)C1CC(NC(C)=O)CCC1=O (configuration not stated) | 5.58 | 5.88 | 407.2 | 158.9 | 365.2 | pIC50 (Toll-like receptor 4): 5.92
CC(=O)CC(=O)C1CC(C2=CCCCC2)CCC1=O (configuration not stated) | 5.27 | 5.55 | – | – | – | –
CN(Cc1cnc2nc(N)nc(N)c2n1)c1ccc(C(=O)N[C@@H](CCC(=O)O)C(=O)O)cc1 [METHOTREXATE] | 5.63 | 5.91 | 334.5 | 115.3 | 235.3 | Activity (RAW264.7 [6]): inactive; Activity (RAW264.7 [7]): Active; Activity (RAW264.7 [8]): Active; Activity (RAW264.7 [9]): Active; Activity (RAW264.7 [10]): Active; Activity (RAW264.7 [11]): Active; Activity (RAW264.7 [12]): inactive; Activity (RAW264.7 [13]): inactive; Activity (RAW264.7 [14]): Active; Activity (RAW264.7 [15]): inactive; Activity (RAW264.7 [16]): Active; Activity (RAW264.7 [17]): Active; Activity (RAW264.7 [18]): Active; Activity (RAW264.7 [19]): Active; Activity (RAW264.7 [20]): Active; Activity (RAW264.7 [21]): Active; Activity (RAW264.7 [22]): Active; Activity (RAW264.7 [23]): Active
CC(=O)CC(=O)C1CC(C(=O)O)CCC1=O (configuration not stated) | 5.27 | 5.57 | – | – | – | –
COC(=O)C1CCC(=O)C(C(=O)CC(C)=O)C1 (configuration not stated) | 4.78 | 5.13 | – | – | – | –
CCC(C)(C)C1CCC(=O)C(C(=O)CC(C)=O)C1 (configuration not stated) | 4.99 | 5.41 | – | – | – | –
CC(=O)CC(=O)C1CC(=O)CCC1=O (configuration not stated) | 5.19 | 5.44 | – | – | – | –
CC(=O)CC(=O)C1CC(Cl)CCC1=O (configuration not stated) | 5.61 | 5.88 | 385.1 | 133.5 | 350.2 | pIC50 (Toll-like receptor 4): 5.95
CC(=O)CC(=O)C1CC(N)CCC1=O (configuration not stated) | 5.67 | 5.92 | 367.3 | 136.9 | 332.9 | pIC50 (Toll-like receptor 4): 5.99
CCC1CCC(=O)C(C(=O)CC(C)=O)C1 (configuration not stated) | 5.27 | 5.57 | – | – | – | –
CCCCCC1CCC(=O)C(C(=O)CC(C)=O)C1 (configuration not stated) | 5.29 | 5.61 | – | – | – | –
